Values of other authors, collected in US20070141100A1, “Drug-eluting biodegradable stent” (priority 2003, published 2007).
Entries after “also recorded” stand apart in the source; their conditions may differ.

Columns and labels:
[1] = glutaraldehyde used to crosslink materials
[2] = tested on: tissue culture
[3] = tested on: Chinese hamster ovary (CHO-K1) cells; settings: in vitro
[4] = tested on: mice; settings: i.v.
[5] = tested on: 3T3 fibroblasts; settings: in vitro
[6] = tested on: renal transplant recipients; settings: everolimus trough serum concentrations above 7.8 ng/ml
[7] = tested on: neointimal proliferation; settings: animal studies, compared with a control bare metal stent

For `O=CCCCC=O` [glutaraldehyde], the “crosslinking concentration giving a persistent foreign-body reaction” value [1] is given as “above 0.05%”, the “cytotoxic at concentrations greater than” value [2] is given as 10-25 ppm and the “cytotoxic at concentrations as low as” value ([2]; in tissue culture) is given as 3 ppm.

In the case of `CC(=O)O[C@H]1C(=O)[C@@]2(C)[C@H]([C@H](OC(=O)c3ccccc3)[C@]3(O)C[C@H](OC(=O)[C@H](O)[C@@H](NC(=O)c4ccccc4)c4ccccc4)C(C)=C1C3(C)C)[C@]1(OC(C)=O)CO[C@@H]1C[C@@H]2O` [Taxol, paclitaxel], the solubility in water is listed as “practically water insoluble”.

In the case of `COC(=O)C1=CO[C@@H](O)[C@@H]2C(CO)=CC[C@H]12` [genipin], the “clastogenic response (genotoxicity)” value [3] is given as “does not cause clastogenic response”, the LD50 [4] is given as 382 mg/k and the “cytotoxicity compared with glutaraldehyde” value [5] is given as “substantially less cytotoxic than glutaraldehyde; also recorded: significantly less cytotoxic than glutaraldehyde”.

For `CO[C@H]1C[C@@H]2CC[C@@H](C)[C@@](O)(O2)C(=O)C(=O)N2CCCC[C@H]2C(=O)O[C@H]([C@H](C)C[C@@H]2CC[C@@H](OCCO)[C@H](OC)C2)CC(=O)[C@H](C)/C=C(\C)[C@@H](O)[C@@H](OC)C(=O)[C@H](C)C[C@H](C)/C=C/C=C/C=C/1C` [Everolimus], the solubility in water is given as “poorly soluble in water”, the rate of thrombocytopenia [6] is given as 17% and the “reduction of neointimal proliferation” value [7] is given as 50%.

In the case of `CO[C@H]1C[C@@H]2CC[C@@H](C)[C@@](O)(O2)C(=O)C(=O)N2CCCC[C@H]2C(=O)O[C@H]([C@H](C)C[C@@H]2CC[C@@H](O)[C@H](OC)C2)CC(=O)[C@H](C)/C=C(\C)[C@@H](O)[C@@H](OC)C(=O)[C@H](C)C[C@H](C)/C=C/C=C/C=C/1C` [Sirolimus], the solubility in water is listed as “non-water soluble”.
